Reference: patent US11046672B2, “Indolinones compounds and their use in the treatment of fibrotic diseases” (RESPIVERT LIMITED, priority 2015, dated 2021)
Where two headings read alike, the source gives them in different places.

Experiments:
MRC5 cells = assay: Cell viability assay in MRC5 cells (MTT)
VEGFR2 = VEGFR2 (Homo sapiens (Human), UniProt P35968); assay: VEGF165 induced phosphorylation of VEGFR2 in endothelial cells (TeloHAEC, HTRF); type: cell-based; details: HAEC cells; n = 1 unless otherwise indicated
Sequence of VEGFR2 (P35968 20-1356): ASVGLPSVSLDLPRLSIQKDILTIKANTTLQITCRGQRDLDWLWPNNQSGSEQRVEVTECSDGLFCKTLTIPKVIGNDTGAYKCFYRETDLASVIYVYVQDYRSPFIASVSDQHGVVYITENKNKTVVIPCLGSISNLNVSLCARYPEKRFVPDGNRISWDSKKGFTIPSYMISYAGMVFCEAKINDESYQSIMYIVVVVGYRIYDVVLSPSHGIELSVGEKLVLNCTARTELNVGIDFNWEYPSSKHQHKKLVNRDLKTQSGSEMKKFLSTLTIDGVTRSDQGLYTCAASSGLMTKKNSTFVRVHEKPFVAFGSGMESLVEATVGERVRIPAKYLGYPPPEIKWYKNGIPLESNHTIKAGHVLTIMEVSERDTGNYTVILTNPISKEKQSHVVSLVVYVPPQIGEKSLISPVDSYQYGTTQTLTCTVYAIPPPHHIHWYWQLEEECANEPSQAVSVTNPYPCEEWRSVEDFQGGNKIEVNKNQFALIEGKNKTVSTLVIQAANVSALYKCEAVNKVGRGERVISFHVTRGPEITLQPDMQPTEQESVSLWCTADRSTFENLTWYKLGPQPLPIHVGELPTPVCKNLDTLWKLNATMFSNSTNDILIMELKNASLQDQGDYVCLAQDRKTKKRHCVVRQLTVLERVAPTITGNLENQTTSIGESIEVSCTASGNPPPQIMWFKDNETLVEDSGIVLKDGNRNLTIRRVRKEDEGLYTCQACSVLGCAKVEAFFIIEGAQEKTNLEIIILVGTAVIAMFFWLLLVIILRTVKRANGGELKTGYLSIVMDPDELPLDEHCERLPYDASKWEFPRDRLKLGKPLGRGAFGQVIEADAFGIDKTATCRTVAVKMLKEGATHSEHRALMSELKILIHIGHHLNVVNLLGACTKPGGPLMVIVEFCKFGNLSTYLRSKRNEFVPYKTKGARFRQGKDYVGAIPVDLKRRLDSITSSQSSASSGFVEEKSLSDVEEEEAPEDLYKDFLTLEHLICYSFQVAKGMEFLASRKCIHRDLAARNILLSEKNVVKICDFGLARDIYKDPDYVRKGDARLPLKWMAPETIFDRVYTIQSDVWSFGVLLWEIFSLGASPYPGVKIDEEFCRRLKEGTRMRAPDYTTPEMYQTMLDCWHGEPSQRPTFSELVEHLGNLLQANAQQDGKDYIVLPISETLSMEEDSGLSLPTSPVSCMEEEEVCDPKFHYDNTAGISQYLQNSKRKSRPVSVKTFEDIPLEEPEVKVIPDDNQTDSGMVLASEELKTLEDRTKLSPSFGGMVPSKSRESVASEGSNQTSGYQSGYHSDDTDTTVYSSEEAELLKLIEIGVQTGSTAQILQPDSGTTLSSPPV

PAMPA permeability assay = type: in vitro ADME; details: PAMPA; for recovery at 5 hr, 10 μM: pH 7, PAMPA, donor and acceptor compartments; for Papp at 5 h, 10 μM: pH 7, pH 7, 10 μM
PDGFRβ [1] = biological target: T1, PDGFRβ (Homo sapiens (Human), UniProt P09619); assay: PDGF-BB induced phosphorylation of PDGFRβ in fibroblasts (MRC5 cells, HTRF); type: cell-based; details: MRC5 cells; n = 1 unless otherwise indicated; read-out: PDGFBB-induced PDGFRβ phosphorylation in MRC5 cells (IC50)
T1 sequence (P09619 33-1106): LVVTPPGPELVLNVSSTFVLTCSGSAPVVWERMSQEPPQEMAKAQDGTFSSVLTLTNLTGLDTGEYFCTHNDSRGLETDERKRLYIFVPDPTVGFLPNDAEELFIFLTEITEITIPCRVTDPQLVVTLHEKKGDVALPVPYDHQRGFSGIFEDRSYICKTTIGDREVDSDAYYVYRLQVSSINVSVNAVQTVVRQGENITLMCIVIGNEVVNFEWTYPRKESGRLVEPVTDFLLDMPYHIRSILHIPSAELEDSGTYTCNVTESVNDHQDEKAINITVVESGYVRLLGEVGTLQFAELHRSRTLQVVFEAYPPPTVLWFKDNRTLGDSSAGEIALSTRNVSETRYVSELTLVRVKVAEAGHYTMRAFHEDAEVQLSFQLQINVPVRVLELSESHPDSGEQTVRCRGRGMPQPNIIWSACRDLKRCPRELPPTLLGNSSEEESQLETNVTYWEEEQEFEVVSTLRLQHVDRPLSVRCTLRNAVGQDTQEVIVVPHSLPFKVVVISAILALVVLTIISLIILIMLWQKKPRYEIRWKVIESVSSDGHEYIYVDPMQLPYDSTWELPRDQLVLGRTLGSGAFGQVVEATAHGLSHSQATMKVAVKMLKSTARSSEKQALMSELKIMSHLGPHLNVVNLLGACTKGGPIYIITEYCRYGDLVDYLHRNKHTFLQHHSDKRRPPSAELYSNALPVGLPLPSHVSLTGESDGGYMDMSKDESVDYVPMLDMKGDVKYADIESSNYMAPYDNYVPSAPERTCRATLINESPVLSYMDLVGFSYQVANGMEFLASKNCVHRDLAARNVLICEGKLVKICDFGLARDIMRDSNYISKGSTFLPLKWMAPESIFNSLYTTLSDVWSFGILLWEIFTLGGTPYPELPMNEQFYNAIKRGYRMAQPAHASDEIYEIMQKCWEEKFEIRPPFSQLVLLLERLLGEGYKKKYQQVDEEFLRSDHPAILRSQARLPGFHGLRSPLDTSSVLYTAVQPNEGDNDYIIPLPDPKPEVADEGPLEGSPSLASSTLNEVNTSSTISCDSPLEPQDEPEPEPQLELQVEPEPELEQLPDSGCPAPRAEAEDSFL

PDGFRβ [2] = biological target: T1, PDGFRβ; details: read-out: Ki PDGFRβ; mean, n = 2 unless otherwise indicated
[3] = Pharmacokinetic measurements in mice (intravenous and intra-nasal dosing); type: in vivo; details: mouse; for concentration at 6 h / concentration at 0.1 h / concentration at 1.5 h / concentration at 24 h / Kp at 6 h / Kp at 0.1 h / Kp at 1.5 h: male, C57BL/6J; for concentration at 6 h / concentration at 0.1 h / concentration at 1.5 h / concentration at 24 h: lung, read-out: lung concentration (nM) at time (h); for concentration at 6 h / concentration at 0.1 h / concentration at 1.5 h / concentration at 24 h / BAV (%): mean; for Kp at 6 h / Kp at 0.1 h / Kp at 1.5 h: lung/plasma
PDGFRβ [4] = biological target: T1, PDGFRβ; assay: Duration of action (washout) against PDGF-BB induced phosphorylation of PDGFRβ in human fetal lung fibroblast cells; type: cell-based; details: MRC-5 cells
[5] = Pharmacokinetic measurements in rats (intravenous and intra-tracheal dosing); type: in vivo; details: rat; for concentration at 0.1 h / concentration at 1.5 h / concentration at 24 h: lung, read-out: lung concentration (nM) at time (h); for Kp at 0.1 h / Kp at 1.5 h / Kp at 24 h: lung/plasma

## COC(=O)c1ccc2c(c1)NC(=O)/C2=C(\Nc1ccc(C(=O)N(C)OC)cc1)c1ccccc1 [Example 1, (Z)-Methyl 3-(((4-(methoxy(methyl)carbamoyl)phenyl)amino)(phenyl)methylene)-2-oxoindoline-6-carboxylate]
MRC5 cells
  Cell viability at 100 nM (%): 116.6%
  Cell viability at 300 nM (%): 97 (n = 2) %
  Cell viability at 1000 nM (%): 87 (n = 2) %
VEGFR2
  IC50: 32.2 nM

## COC(=O)c1cc2c(cc1C)/C(=C(/Nc1ccc(C(=O)NOCCN3CCN(C)CC3)cc1)c1ccccc1)C(=O)N2 [Example 6, (Z)-Methyl 5-methyl-3-(((4-((2-(4-methylpiperazin-1-yl)ethoxy)carbamoyl)phenyl)amino)(phenyl)methylene)-2-oxoindoline-6-carboxylate]
MRC5 cells
  Cell viability at 100 nM (%): 98.1%
  Cell viability at 300 nM (%): 88.5%
  Cell viability at 1000 nM (%): 77%
PAMPA permeability assay
  recovery at 5 hr, 10 μM: 42%
  Papp at 5 h, 10 μM: 0.00649 ×10⁻⁶ cm/s
PDGFRβ [1]
  IC50: 6.95 nM
PDGFRβ [2]
  Ki: 8.31 nM
[3]; iv, 0.2 mg/kg, i.v. dosing, 6 h
  concentration at 6 h: 46 nM
[3]; iv, i.v. dosing, 0.1 h
  concentration at 0.1 h: 580 nM
[3]; iv, i.v. dosing, 1.5 h
  concentration at 1.5 h: 168 nM
[3]; iv, i.v. dosing, 24 h
  concentration at 24 h: 13 nM
[3]; other: intra-nasal, i.n. dosing, 0.1 h
  concentration at 0.1 h: 1490 nM
[3]; other: intra-nasal, i.n. dosing, 1.5 h
  concentration at 1.5 h: 986 nM
[3]; other: intra-nasal, i.n. dosing, 6 h
  concentration at 6 h: 258 nM
[3]; other: intra-nasal, i.n. dosing, 24 h
  concentration at 24 h: 84 nM
[3]; iv, 0.2 mg/kg, i.v. dosing, 6 h, read-out: lung/plasma ratio at time(h)
  Kp at 6 h: 65
[3]; iv, i.v. dosing, 0.1 h, read-out: lung/plasma ratio at time(h)
  Kp at 0.1 h: 11
[3]; iv, i.v. dosing, 1.5 h, read-out: lung/plasma ratio at time(h)
  Kp at 1.5 h: 40
[3]; other: intra-nasal, i.n. dosing, 0.1 h, read-out: lung/plasma conc ratio at time(h)
  Kp at 0.1 h: 79
[3]; other: intra-nasal, i.n. dosing, 1.5 h, read-out: lung/plasma conc ratio at time(h)
  Kp at 1.5 h: 398
[3]; other: intra-nasal, i.n. dosing, 6 h, read-out: lung/plasma conc ratio at time(h)
  Kp at 6 h: 607
[3]; 0.1 h
  Lung conc i.n./i.v. Ratio at time (h): 2.6
[3]; 1.5 h
  Lung conc i.n./i.v. Ratio at time (h): 5.9
[3]; 6 h
  Lung conc i.n./i.v. Ratio at time (h): 5.6
[3]; 24 h
  Lung conc i.n./i.v. Ratio at time (h): 6.5
[3]; i.n. dosing (i.n. dose 1 nintedanib, 0.2 examples)
  BAV (%): ~50%
[3]; i.n. dosing, 0.1 h
  BAL % administered dose at time (h): 1%
[3]; i.n. dosing, 1.5 h
  BAL % administered dose at time (h): 0.3%
[3]; i.n. dosing, 6 h
  BAL % administered dose at time (h): 0.1%
[3]; i.n. dosing, 24 h
  BAL % administered dose at time (h): 0.04%
[3]; i.v. dosing, 0.1 h
  BAL % administered dose at time (h): 0.1%
[3]; i.v. dosing, 1.5 h
  BAL % administered dose at time (h): 0.01%
[3]; oral dosing (oral dose 60 mg/kg nintedanib, 10 mg/kg examples)
  BAV (%): <5%
PDGFRβ [4]; after wash-out, rhuPDGF-BB, experiments in Groups 1-4
  % phos: percentage phosphorylation after wash-out relative to maximal phosphorylation (100%): 31.6%
PDGFRβ [4]; wash-out
  Duration of action as inhibitors of PDGFRβ compared with nintedanib: longer duration of action
[5]; male, CD, iv, i.v. dosing, 0.1 h
  concentration at 0.1 h: 2990 nM
[5]; male, CD, iv, i.v. dosing, 1.5 h
  concentration at 1.5 h: 1880 nM
[5]; male, CD, iv, i.v. dosing, 24 h
  concentration at 24 h: 173 nM
[5]; male, CD, other: intra-tracheal, i.t. dosing, 0.1 h
  concentration at 0.1 h: 30400 nM
[5]; male, CD, other: intra-tracheal, i.t. dosing, 1.5 h
  concentration at 1.5 h: 11900 nM
[5]; male, CD, other: intra-tracheal, i.t. dosing, 24 h
  concentration at 24 h: 4720 nM
[5]; male, CD, iv, i.v. dosing, 0.1 h, read-out: lung/plasma ratio at time(h)
  Kp at 0.1 h: 103
[5]; male, CD, iv, i.v. dosing, 1.5 h, read-out: lung/plasma ratio at time(h)
  Kp at 1.5 h: 315
[5]; male, CD, iv, i.v. dosing, 24 h, read-out: lung/plasma ratio at time(h)
  Kp at 24 h: 198
[5]; male, CD, other: intra-tracheal, i.t. dosing, 0.1 h, read-out: lung/plasma conc ratio at time(h)
  Kp at 0.1 h: 288
[5]; male, CD, other: intra-tracheal, i.t. dosing, 1.5 h, read-out: lung/plasma conc ratio at time(h)
  Kp at 1.5 h: 2890
[5]; male, CD, other: intra-tracheal, i.t. dosing, 24 h, read-out: lung/plasma conc ratio at time(h)
  Kp at 24 h: 3280
[5]; male, CD, plasma, iv, i.v. dosing
  MRT: 7.9 h
[5]; male, CD, plasma, iv, i.v. dosing (i.v. dose 0.1-0.5 per compound)
  clearance: 132 mL/min/kg
[5]; male, CD, plasma, iv, i.v. dosing, read-out: Vss
  Vd: 63 L/kg
[5]; male, CD, plasma, iv, i.v. dosing, read-out: t½ (converted)
  half-life: 8.1 h
[5]; 0.1 h
  Lung conc i.t./i.v. Ratio at time (h): 10.2
[5]; 1.5 h
  Lung conc i.t./i.v. Ratio at time (h): 6.3
[5]; 24 h
  Lung conc i.t./i.v. Ratio at time (h): 27.3
[5]; i.t. dosing (i.t. dose 0.1-0.5 per compound)
  i.t. BAV (%): 115%
[5]; i.t. dosing, 0.1 h
  BAL % administered dose at time (h): 6%
[5]; i.t. dosing, 1.5 h
  BAL % administered dose at time (h): 3%
[5]; i.t. dosing, 24 h
  BAL % administered dose at time (h): 0.1%
[5]; i.v. dosing, 0.1 h
  BAL % administered dose at time (h): 0.06%
[5]; i.v. dosing, 1.5 h
  BAL % administered dose at time (h): 0.03%
[5]; i.v. dosing, 24 h
  BAL % administered dose at time (h): BQL
[5]; oral dose 3 mg/kg
  Oral BAV (%): <1%

## COC(=O)c1cc2c(cc1C)/C(=C(/Nc1ccc(C(=O)NOCCCN3CCN(C)CC3)cc1)c1ccccc1)C(=O)N2 [Example 64]
MRC5 cells
  Cell viability at 100 nM (%): 86.5%
  Cell viability at 300 nM (%): 88.6%
  Cell viability at 1000 nM (%): 73.7%
PAMPA permeability assay
  recovery at 5 hr, 10 μM: 59.4%
  Papp at 5 h, 10 μM: 0.0679 ×10⁻⁶ cm/s
VEGFR2
  IC50: 32.2 nM
